Values after ≈ are worked out from the molar mass of the structure shown. Bridge positions count the residues as written; N and C are the ends. Square brackets hold non-standard residues; d marks the D form. Peptide text beside a SMILES is read from it. * marks the point of attachment. ξ: configuration not given here. dBip = N[C@H](Cc1ccc(-c2ccccc2)cc1)C(=O)O; Thr(3ξ) = CC(O)[C@H](N)C(=O)O; X1 = CC(C)CN1CCNC[C@H]1C(=O)*; Dab = NCC[C@H](N)C(=O)O; Dap = NC[C@H](N)C(=O)O
Columns and labels:
Type in all cases: cell-based
[1] = tested on: Escherichia coli, Pseudomonas aeruginosa, Klebsiella pneumoniae and Acinetobacter baumannii; assay: Susceptibility testing, comparisons in words across the Gram negative pathogens; details: versus comparator compound
Procedure: To evaluate the potency and spectrum of the compounds, susceptibility testing was performed against up to nine strains of each of the Gram negative pathogens, Escherichia coli, Pseudomonas aeruginosa, Klebsiella pneumoniae and Acinetobacter baumannii.

HK-2 cells = tested on: HK-2 cells
Excerpt: Values are reported relative to Polymyxin B.

Pseudomonas aeruginosa = tested on: Pseudomonas aeruginosa
Outline: (§1)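 Strain panels of up to nine per species, with resistant and Polymyxin-tolerant strains included, were used for susceptibility testing; read-out was MIC (μg/mL).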

Escherichia coli = tested on: Escherichia coli
Outline: as §1

Klebsiella pneumoniae = tested on: Klebsiella pneumoniae
Outline: as §1

Acinetobacter baumannii = tested on: Acinetobacter baumannii
Outline: as §1

Row | Compound | activity against polymyxin resistant strains [1] | HK-2 IC50 (HK-2 cells) | MIC P. aeruginosa 068 (Pseudomonas aeruginosa) | MIC P. aeruginosa 070 (Pseudomonas aeruginosa) | MIC P. aeruginosa ATCC 27853 (Pseudomonas aeruginosa) | MIC E. coli 058 (Escherichia coli) | MIC E. coli 059 (Escherichia coli) | MIC E. coli 060 (Escherichia coli) | MIC E. coli 061 (Escherichia coli) | MIC E. coli ATCC 25922 (Escherichia coli) | MIC K. pneumoniae 063 (Klebsiella pneumoniae) | MIC K. pneumoniae 064 (Klebsiella pneumoniae) | MIC K. pneumoniae 065 (Klebsiella pneumoniae) | MIC K. pneumoniae 066 (Klebsiella pneumoniae) | MIC K. pneumoniae 067 (Klebsiella pneumoniae) | MIC K. pneumoniae ATCC 4352 (Klebsiella pneumoniae) | MIC A. baumanii 053 (Acinetobacter baumannii) | MIC A. baumanii 056 (Acinetobacter baumannii) | MIC A. baumanii ATCC BAA-747 (Acinetobacter baumannii)
1 | CC(C)CC1CNCC(C(=O)N[C@H](C(=O)N[C@@H](CN)C(=O)N[C@H]2CCNC(=O)[C@H]([C@@H](C)O)NC(=O)[C@H](CCN)NC(=O)[C@H](CCN)NC(=O)[C@H](CC(C)C)NC(=O)[C@@H](Cc3ccc(-c4ccccc4)cc3)NC(=O)[C@H](CCN)NC2=O)C(C)O)C1 (single isomer, unassigned; isomer 2) [Example 4, (trans-5-(isobutyl-piperidine)-3-carbonyl L-Thr-L-Dap-polymyxin [D-(4-phenyl)Phe]-6]heptapeptide. Isomer 2] | significantly improves of activity against resistant strains | 32 µg/mL | 1 µg/mL (≈ 0.839 µM) | 2 µg/mL (≈ 1.68 µM) | 1 µg/mL (≈ 0.839 µM) | 0.5 µg/mL (≈ 0.419 µM) | 0.5 µg/mL (≈ 0.419 µM) | 0.5 µg/mL (≈ 0.419 µM) | 2 µg/mL (≈ 1.68 µM) | 0.5 µg/mL (≈ 0.419 µM) | 4 µg/mL (≈ 3.35 µM) | 2 µg/mL (≈ 1.68 µM) | 1 µg/mL (≈ 0.839 µM) | 1 µg/mL (≈ 0.839 µM) | 8 µg/mL (≈ 6.71 µM) | 0.5 µg/mL (≈ 0.419 µM) | 2 µg/mL (≈ 1.68 µM) | 0.5 µg/mL (≈ 0.419 µM) | 0.5 µg/mL (≈ 0.419 µM)
2 | CC(C)C[C@@H]1NC(=O)[C@@H](Cc2ccc(-c3ccccc3)cc2)NC(=O)[C@H](CCN)NC(=O)[C@@H](NC(=O)[C@H](CN)NC(=O)[C@@H](NC(=O)[C@@H]2CNCCN2CC(C)C)C(C)O)CCNC(=O)[C@H]([C@@H](C)O)NC(=O)[C@H](CCN)NC(=O)[C@H](CCN)NC1=O (some centres unmarked) [Example 5] (X1-[Thr(3ξ)][Dap][Dab][Dab][dBip]L[Dab][Dab]T; lactam 3-C) | significantly improves of activity against resistant strains | 36 µg/mL | 4 µg/mL (≈ 3.35 µM) | 8 µg/mL (≈ 6.7 µM) | 0.5 µg/mL (≈ 0.419 µM) | 1 µg/mL (≈ 0.838 µM) | 1 µg/mL (≈ 0.838 µM) | 2 µg/mL (≈ 1.68 µM) | 8 µg/mL (≈ 6.7 µM) | 0.06 µg/mL (≈ 0.0503 µM) | 16 µg/mL (≈ 13.4 µM) | 4 µg/mL (≈ 3.35 µM) | 0.5 µg/mL (≈ 0.419 µM) | 8 µg/mL (≈ 6.7 µM) | 32 µg/mL (≈ 26.8 µM) | 0.25 µg/mL (≈ 0.209 µM) | 32 µg/mL (≈ 26.8 µM) | 4 µg/mL (≈ 3.35 µM) | 0.125 µg/mL (≈ 0.105 µM)

Reference: US12146004B2, “Polymyxin compounds and uses thereof” (priority 2014, dated 2024)
